From US20060019967A1 (priority 2004, published 2006)

molecular target: HCV NS3 protease (Hepatitis C virus genotype 1b, UniProt P26663); assay type: biochemical
Sequence (P26663 1027-1206, other chains not shown): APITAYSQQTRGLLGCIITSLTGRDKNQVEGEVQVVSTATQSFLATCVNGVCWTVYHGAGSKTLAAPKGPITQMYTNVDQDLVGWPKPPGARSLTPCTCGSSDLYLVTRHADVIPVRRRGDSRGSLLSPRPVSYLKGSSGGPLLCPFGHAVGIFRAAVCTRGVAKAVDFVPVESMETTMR

| SMILES | inhibition of the proteolytic activity of HCV NS3 protease |
| --- | --- |
| Cc1cc(S(=O)(=O)c2c([N+](=O)[O-])cc(C(F)(F)F)cc2[N+](=O)[O-])c(Cl)cc1Cl [Compound 1] | effectively inhibited |
| CCOC(=O)/C(C#N)=C/Nc1ccc(S(=O)(=O)c2ccc(N/C=C(\C#N)C(=O)OCC)cc2)cc1 [Compound 14] | effectively inhibited |
| CCOC(=O)C(=CNc1ccc(S(=O)(=O)c2ccc(NC=C(C(=O)OCC)C(=O)OCC)cc2)cc1)C(=O)OCC [Compound 20] | effectively inhibited |
| O=C(CC1=NCCS1)c1cccs1 [Compound 21] | effectively inhibited |
| CN(C)/C=C(/C(=O)c1cccs1)c1nnnn1-c1ccccc1 [Compound 25] | effectively inhibited |
